# “Also recorded” adds a separate entry of the source.
# Legend:
# [1] = test system: CCND2 expression in UCC cell lines; assay: Q-RT-PCR of CCND2 expression after 5-aza-dc and/or TSA treatment of UCC cell lines; assay type: cell-based; conditions: 5 μM 5-aza-dc for 5 days, vs PBS control
# Description: (§1) UCC cells were seeded in 75 cm2 culture flasks at a density of […] and incubated at 37° C. in 5% CO2/95% air overnight. Cells were then treated with 5μM of 5-aza-dc (Sigma Chemical, Sigma, USA) for 5 days. […] Additionally, combination treatment with 5-aza-dc and TSA was performed by adding 5μM of 5-aza-dc daily for 5 days and TSA (300 nmol/L; Sigma) was added to the medium for the final 24 hours. […] PBS (phosphate buffered saline) alone was used as a control to exclude non-specific solvent effects on cells. All experiments were run independently twice. RNA was extracted using Qiazol Lysis reagent (Qiagen, Valencia, Calif.) according to the manufacturer's instructions. One microgram of total RNA was used for cDNA conversion using the Quantitect Reverse Transcription Kit (Qiagen, Valencia, Calif.), following manufacturer's protocol. Q-RT-PCR was performed using the SYBR Green chemistry in a 7900HT Real-Time PCR System (Applied Biosystems, Foster City, CA). […] The RT-PCR primer sequences are available in Supplementary Table 2B. […] Quantitative reverse transcriptase PCR was performed to determine whether promoter methylation of CCNA1 and CCND2 inversely correlated with their expression. […]
# [2] = test system: CCNA1 expression in UCC cell lines; assay: Q-RT-PCR of CCNA1 expression after 5-aza-dc and/or TSA treatment of UCC cell lines; assay type: cell-based; conditions: SW780 and J82 cell lines; 5 μM 5-aza-dc for 5 days; vs PBS control
# Description: as §1
smiles,measurement,setting,value
"Nc1ncn([C@H]2C[C@H](O)[C@@H](CO)O2)c(=O)n1 [5-aza-dc, 5-aza-deoxycytidine]",CCND2 expression (real-time RT-PCR),[1]; HT1376 cell line,overexpression was observed after 5-aza-dc treatment only (not significant)
same,CCND2 expression (real-time RT-PCR),"[1]; UMUC-3, J82 and T24 cell lines",Reactivation of CCND2 was observed
same,CCNA1 expression (real-time RT-PCR),[2],re-expression of CCNA1; also recorded: Reactivation of CCNA1 was observed

# Reference: patent US20200181709A1, “METHODS OF DETECTION AND TREATMENT OF UROTHELIAL CANCER” (THE JOHNS HOPKINS UNIVERSITY, priority 2015, published 2020)
